This passage reports inhibition and IC50 results from US20210388015A1, “GLUCOPYRANOSE DERIVATIVES USEFUL AS SGLT2 INHIBITORS” (Janssen Pharmaceutica NV, priority 2018, published 2021).

Molecules are shown by their SMILES. Where a name gives a salt, the structure may show the parent alone.

The target of the first assay is T1, human SGLT1 (Homo sapiens, UniProt P13866).
T1 construct: expressed in transfected cells; host or cells: CHO-K1
T1 sequence (P13866 1-664): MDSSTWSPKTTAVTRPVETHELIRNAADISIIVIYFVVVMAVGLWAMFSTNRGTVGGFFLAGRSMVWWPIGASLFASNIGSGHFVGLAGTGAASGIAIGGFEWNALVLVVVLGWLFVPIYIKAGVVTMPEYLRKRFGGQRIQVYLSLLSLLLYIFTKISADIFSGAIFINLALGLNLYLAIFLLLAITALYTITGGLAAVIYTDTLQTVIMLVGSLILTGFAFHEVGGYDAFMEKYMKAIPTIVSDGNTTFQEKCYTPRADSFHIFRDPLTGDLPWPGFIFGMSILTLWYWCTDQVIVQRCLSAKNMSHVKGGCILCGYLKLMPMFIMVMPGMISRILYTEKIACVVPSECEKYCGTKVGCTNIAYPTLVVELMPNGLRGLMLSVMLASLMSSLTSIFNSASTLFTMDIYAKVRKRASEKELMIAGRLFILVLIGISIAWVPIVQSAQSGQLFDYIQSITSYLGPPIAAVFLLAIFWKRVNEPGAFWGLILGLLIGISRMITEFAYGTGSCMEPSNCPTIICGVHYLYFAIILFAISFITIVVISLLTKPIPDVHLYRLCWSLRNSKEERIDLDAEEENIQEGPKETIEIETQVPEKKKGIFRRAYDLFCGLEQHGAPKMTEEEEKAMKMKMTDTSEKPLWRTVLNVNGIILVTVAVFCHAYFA
Put plainly: SGLT1 inhibition assay, 14C-AMG uptake in CHO-K1 cells stably expressing human SGLT1. Particulars: CHO-K1, CHO-K1 cells, 1 μM test compound; read-out: CHO-K1 Cells SGLT1 % Inh @1 μM. It is filed as cell-based. The protocol: (§1) The cells were incubated for 24 hours. […] Plates were counted in a TopCount (Packard, Meriden, Conn.). Each experiment was repeated at least twice.
(§2) Results are reported as the %-inhibition or IC50 value.
On to `COCCOCCOCCOCCOc1ccc(Cc2cc([C@@H]3O[C@H](CO)[C@@H](O)[C@H](O)[C@H]3O)ccc2Cl)cc1` [Compound 1], for which the inhibition at 1 µM came out at 14.5%.

`C[N+]1(CCOCCOc2ccc(Cc3cc([C@@H]4O[C@H](CO)[C@@H](O)[C@H](O)[C@H]4O)ccc3Cl)cc2)CCCC1` [Compound 7]: the inhibition at 1 µM was 17.5%.

For `C[N+]1(CCCCCOc2ccc(Cc3cc([C@@H]4O[C@H](CO)[C@@H](O)[C@H](O)[C@H]4O)ccc3Cl)cc2)CCCC1` [Compound 6, 1-(5-(4-(2-chloro-5-((2S,3R,4R,5S,6R)-3,4,5-trihydroxy-6-(hydroxymethyl)tetrahydro-2H-pyran-2-yl)benzyl)phenoxy)pentyl)-1-methylpyrrolidin-1-ium trifluoroacetate], the inhibition at 1 µM was found to be 43.1%.

For `O=S(=O)(O)CCCOc1ccc(Cc2cc([C@@H]3O[C@H](CO)[C@@H](O)[C@H](O)[C@H]3O)ccc2Cl)cc1` [Compound 2, 3-(4-(2-chloro-5-((2S,3R,4R,5S,6R)-3,4,5-trihydroxy-6-(hydroxymethyl)tetrahydro-2H-pyran-2-yl)benzyl)phenoxy)propane-1-sulfonic acid], the inhibition at 1 µM stood at 20%.

The assay is the same for the next values; noted with them: CHO-K1, read-out: CHO-K1 Cells SGLT1 % Inh @1 μM.
Take `OC[C@H]1O[C@@H](c2ccc(Cl)c(Cc3ccc(OCc4ccc(COc5ccc(Cc6cc([C@@H]7O[C@H](CO)[C@@H](O)[C@H](O)[C@H]7O)ccc6Cl)cc5)nc4)cc3)c2)[C@H](O)[C@@H](O)[C@@H]1O` [Compound 14, (2R,2′R,3S,3′S,4R,4′R,5R,5′R,6S,6′S)-6,6′-(((((pyridine-2,5-diylbis(methylene))bis(oxy))bis(4,1-phenylene))bis(methylene))bis(4-chloro-3,1-phenylene))bis(2-(hydroxymethyl)tetrahydro-2H-pyran-3,4,5-triol) trifluoroacetate]: the inhibition at 1 µM was found to be 19%.

The assay is the same for the next values; noted with them: CHO-K1 cells; IC50 printed in the % Inh column.
For the compound `OC[C@H]1O[C@@H](c2ccc(Cl)c(Cc3ccc(OCCOCCOc4ccc(Cc5cc([C@@H]6O[C@H](CO)[C@@H](O)[C@H](O)[C@H]6O)ccc5Cl)cc4)cc3)c2)[C@H](O)[C@@H](O)[C@@H]1O` [Compound 10, (2R,2′R,3S,3′S,4R,4′R,5R,5′R,6S,6′S)-6,6′-(((((oxybis(ethane-2,1-diyl))bis(oxy))bis(4,1-phenylene))bis(methylene))bis(4-chloro-3,1-phenylene))bis(2-(hydroxymethyl)tetrahydro-2H-pyran-3,4,5-triol)], half-maximal inhibition (IC50) was put at 1490 nM.

For a further assay, the target named is T2, human SGLT2 (Homo sapiens, UniProt P31639).
T2 construct: expressed in transfected cells; host or cells: CHO-K1
T2 sequence (P31639 1-672): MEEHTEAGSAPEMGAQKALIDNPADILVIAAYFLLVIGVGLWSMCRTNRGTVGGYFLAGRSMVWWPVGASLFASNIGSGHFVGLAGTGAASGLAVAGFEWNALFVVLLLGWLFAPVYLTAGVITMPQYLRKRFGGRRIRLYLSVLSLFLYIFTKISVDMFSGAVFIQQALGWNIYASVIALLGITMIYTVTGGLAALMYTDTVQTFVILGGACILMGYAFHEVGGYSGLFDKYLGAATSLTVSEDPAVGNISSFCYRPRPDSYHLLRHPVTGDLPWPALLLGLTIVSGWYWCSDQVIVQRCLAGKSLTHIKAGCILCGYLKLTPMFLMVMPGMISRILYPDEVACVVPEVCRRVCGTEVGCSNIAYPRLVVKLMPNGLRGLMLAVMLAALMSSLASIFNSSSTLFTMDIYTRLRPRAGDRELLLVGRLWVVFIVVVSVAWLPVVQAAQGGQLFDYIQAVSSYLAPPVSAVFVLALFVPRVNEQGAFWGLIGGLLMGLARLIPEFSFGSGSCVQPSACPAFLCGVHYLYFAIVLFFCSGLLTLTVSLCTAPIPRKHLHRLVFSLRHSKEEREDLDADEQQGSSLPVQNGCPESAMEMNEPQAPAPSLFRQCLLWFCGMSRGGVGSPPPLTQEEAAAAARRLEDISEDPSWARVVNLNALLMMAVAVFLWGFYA
Put plainly: SGLT2 inhibition assay, 14C-AMG uptake in CHO-K1 cells stably expressing human SGLT2. Format: cell-based.
Conditions: not given
The protocol: as §1, §2
`OC[C@H]1O[C@@H](c2ccc(Cl)c(Cc3ccc(OCCOCCOc4ccc(Cc5cc([C@@H]6O[C@H](CO)[C@@H](O)[C@H](O)[C@H]6O)ccc5Cl)cc4)cc3)c2)[C@H](O)[C@@H](O)[C@@H]1O` [Compound 10, (2R,2′R,3S,3′S,4R,4′R,5R,5′R,6S,6′S)-6,6′-(((((oxybis(ethane-2,1-diyl))bis(oxy))bis(4,1-phenylene))bis(methylene))bis(4-chloro-3,1-phenylene))bis(2-(hydroxymethyl)tetrahydro-2H-pyran-3,4,5-triol)] came in with an IC50 of 7.6 nM.

Turning to `C[N+](C)(CCOc1ccc(Cc2cc([C@@H]3O[C@H](CO)[C@@H](O)[C@H](O)[C@H]3O)ccc2Cl)cc1)CCOc1ccc(Cc2cc([C@@H]3O[C@H](CO)[C@@H](O)[C@H](O)[C@H]3O)ccc2Cl)cc1` [Compound 15, trifluoroacetate], the IC50 is 121 nM.

Regarding `C[N+]1(Cc2ccc(COc3ccc(Cc4cc([C@@H]5O[C@H](CO)[C@@H](O)[C@H](O)[C@H]5O)ccc4Cl)cc3)cc2)CCC(C2CC[N+](C)(Cc3ccc(COc4ccc(Cc5cc([C@@H]6O[C@H](CO)[C@@H](O)[C@H](O)[C@H]6O)ccc5Cl)cc4)cc3)CC2)CC1` (stereo partly drawn) [Compound 16, 1,1′-bis(4-((4-(2-chloro-5-((2S,3R,4R,5S,6R)-3,4,5-trihydroxy-6-(hydroxymethyl)tetrahydro-2H-pyran-2-yl)benzyl)phenoxy)methyl)benzyl)-1,1′-dimethyl-[4,4′-bipiperidine]-1,1′-diium trifluoroacetate], the IC50 came to 4 nM.

`C[N+](C)(CCCc1ccc(-c2ccc(Cc3cc([C@@H]4O[C@H](CO)[C@@H](O)[C@H](O)[C@H]4O)ccc3Cl)s2)cc1)CCOc1ccc(-c2ccc(Cc3cc([C@@H]4O[C@H](CO)[C@@H](O)[C@H](O)[C@H]4O)ccc3Cl)s2)cc1` [Compound 19, N-(2-(4-(5-(2-chloro-5-((2S,3R,4R,5S,6R)-3,4,5-trihydroxy-6-(hydroxymethyl)tetrahydro-2H-pyran-2-yl)benzyl)thiophen-2-yl)phenoxy)ethyl)-3-(4-(5-(2-chloro-5-((2S,3R,4R,5S,6R)-3,4,5-trihydroxy-6-(hydroxymethyl)tetrahydro-2H-pyran-2-yl)benzyl)thiophen-2-yl)phenyl)-N,N-dimethylpropan-1-aminium trifluoroacetate] displayed an IC50 of 24 nM.

In turn, `OC[C@H]1O[C@@H](c2ccc(Cl)c(Cc3ccc(OCc4ccc(COc5ccc(Cc6cc([C@@H]7O[C@H](CO)[C@@H](O)[C@H](O)[C@H]7O)ccc6Cl)cc5)cc4)cc3)c2)[C@H](O)[C@@H](O)[C@@H]1O` [Compound 13] gave an IC50 of 32 nM.

`OC[C@H]1O[C@H](c2ccc(Cl)c(Cc3ccc(OCc4cc(COc5ccc(Cc6cc([C@@H]7O[C@H](CO)[C@@H](O)[C@H](O)[C@H]7O)ccc6Cl)cc5)c(COc5ccc(Cc6cc([C@@H]7O[C@H](CO)[C@@H](O)[C@H](O)[C@H]7O)ccc6Cl)cc5)cc4COc4ccc(Cc5cc([C@@H]6O[C@H](CO)[C@@H](O)[C@H](O)[C@H]6O)ccc5Cl)cc4)cc3)c2)[C@H](O)[C@@H](O)[C@@H]1O` [(III), (2R,2′R,2″R,3S,3′S,3″S,4R,4′R,4″R,5R,5′R,5″R,6S,6′S,6″S)-6,6′,6″-((((((5-((4-(2-chloro-5-((2R,3R,4R,5S,6R)-3,4,5-trihydroxy-6-(hydroxymethyl)tetrahydro-2H-pyran-2-yl)benzyl)phenoxy)methyl)benzene-1,2,4-triyl)tris(methylene))tris(oxy))tris(benzene-4,1-diyl))tris(methylene))tris(4-chlorobenzene-3,1-diyl))tris(2-(hydroxymethyl)tetrahydro-2H-pyran-3,4,5-triol)] yielded an IC50 of 33 nM.

As for `OC[C@H]1O[C@@H](c2ccc(Cl)c(Cc3ccc(OCc4ccc(COc5ccc(Cc6cc([C@@H]7O[C@H](CO)[C@@H](O)[C@H](O)[C@H]7O)ccc6Cl)cc5)nc4)cc3)c2)[C@H](O)[C@@H](O)[C@@H]1O` [Compound 14, (2R,2′R,3S,3′S,4R,4′R,5R,5′R,6S,6′S)-6,6′-(((((pyridine-2,5-diylbis(methylene))bis(oxy))bis(4,1-phenylene))bis(methylene))bis(4-chloro-3,1-phenylene))bis(2-(hydroxymethyl)tetrahydro-2H-pyran-3,4,5-triol) trifluoroacetate], the IC50 stood at 4.8 nM.

Take `OC[C@H]1O[C@@H](c2ccc(Cl)c(Cc3ccc(OCCOCCOCCOc4ccc(Cc5cc([C@@H]6O[C@H](CO)[C@@H](O)[C@H](O)[C@H]6O)ccc5Cl)cc4)cc3)c2)[C@H](O)[C@@H](O)[C@@H]1O` [Compound 11]: half-maximal inhibition (IC50) required 20.8 nM.

In the case of `OC[C@H]1O[C@@H](c2ccc(Cl)c(Cc3ccc(OCCOCCOCCOCCOc4ccc(Cc5cc([C@@H]6O[C@H](CO)[C@@H](O)[C@H](O)[C@H]6O)ccc5Cl)cc4)cc3)c2)[C@H](O)[C@@H](O)[C@@H]1O` [Compound 12], it took 9.6 nM to reach half-maximal inhibition (IC50).

`O=C(O)C(CCC(Oc1ccc(Cc2cc([C@@H]3O[C@H](CO)[C@@H](O)[C@H](O)[C@H]3O)ccc2Cl)cc1)C(=O)O)Oc1ccc(Cc2cc([C@@H]3O[C@H](CO)[C@@H](O)[C@H](O)[C@H]3O)ccc2Cl)cc1` (mixture of isomers) [Compound 18] gave an IC50 of 377 nM.

Take `C[N+]1(Cc2ccc(COc3ccc(Cc4cc([C@@H]5O[C@H](CO)[C@@H](O)[C@H](O)[C@H]5O)ccc4Cl)cc3)cc2)CCC(CCC2CC[N+](C)(Cc3ccc(COc4ccc(Cc5cc([C@@H]6O[C@H](CO)[C@@H](O)[C@H](O)[C@H]6O)ccc5Cl)cc4)cc3)CC2)CC1` (stereo partly drawn) [Compound 17, 4,4′-(ethane-1,2-diyl)bis(1-(4-((4-(2-chloro-5-((2S,3R,4R,5S,6R)-3,4,5-trihydroxy-6-(hydroxymethyl)tetrahydro-2H-pyran-2-yl)benzyl)phenoxy)methyl)benzyl)-1-methylpiperidin-1-ium) trifluoroacetate]: half-maximal inhibition (IC50) was put at 5 nM.

The term IC50 denotes the concentration that inhibits the measured activity by half. Read a low IC50 as greater potency.
